Assay results taken from patent US20250215101A1, “DR5 Agonist and PLK1 Inhibitor or CDK Inhibitor Combination Therapy” (Inhibrx Biosciences, Inc., priority 2022, published 2025).

Key:
Experiment in all cases: Cytotoxicity assay, colorectal cancer cell line panel, onvansertib +/- 1 nM INBRX-109
Assay type in all cases: cell-based
COLO320DM = conditions: for EC50: Homo sapiens, COLO 320DM
Protocol: (§1) Monolayer cultures of each cell line were harvested for compound screening as detailed below.
(§2) Also on day 2, test and control articles were added.
(§3) On day 4, viability measurements were taken. […] Data was graphed in GraphPad Prism 9.
(§4) The results for a panel of colorectal cancer cell lines are shown in Table 3 and FIGS. 4-6, and the results for a panel of pancreatic cell lines are shown in Table 4 and FIGS. 7 and 8.

DLD-1 = conditions: for Max Cytotox at 600 nM: DLD-1; for EC50: Homo sapiens, DLD-1, DLD-1
Protocol: as §1, §2, §3, §4

HCT 116 = conditions: for Max Cytotox at 600 nM: HCT 116; for EC50: Homo sapiens, HCT-116, HCT 116
Protocol: as §1, §2, §3, §4

HCT-15 = conditions: for Max Cytotox at 600 nM: HCT-15; for EC50: Homo sapiens, HCT-15, HCT-15
Protocol: as §1, §2, §3, §4

HCT-8 = conditions: for Max Cytotox at 600 nM: HCT-8; for EC50: Homo sapiens, HCT-8, HCT-8
Protocol: as §1, §2, §3, §4

HT-29 = conditions: for Max Cytotox at 600 nM: HT-29; for EC50: Homo sapiens, HT-29, HT-29
Protocol: as §1, §2, §3, §4

HT-55 = conditions: for Max Cytotox at 600 nM: HT-55; for EC50: Homo sapiens, HT55, HT-55
Protocol: as §1, §2, §3, §4

Hutu 80 = conditions: for EC50: Homo sapiens, HuTu80, Hutu 80; for Max Cytotox at 600 nM: Hutu 80
Protocol: as §1, §2, §3, §4

LS 1034 = conditions: for EC50: Homo sapiens, LS-1034, LS 1034; for Max Cytotox at 600 nM: LS 1034
Protocol: as §1, §2, §3, §4

LS 123 = conditions: for EC50: Homo sapiens, LS-123, LS 123; for Max Cytotox at 600 nM: LS 123
Protocol: as §1, §2, §3, §4

LS 180 = conditions: for EC50: Homo sapiens, LS180, LS 180; for Max Cytotox at 600 nM: LS 180
Protocol: as §1, §2, §3, §4

LS 513 = conditions: for EC50: Homo sapiens, LS-513, LS 513; for Max Cytotox at 600 nM: LS 513
Protocol: as §1, §2, §3, §4

LS174T = conditions: for EC50: Homo sapiens
Protocol: as §1, §2, §3, §4

LoVo = conditions: for EC50: Homo sapiens
Protocol: as §1, §2, §3, §4

NCI-H716 = conditions: for EC50: Homo sapiens, NCI-H716, NCI-H716; for Max Cytotox at 600 nM: NCI-H716
Protocol: as §1, §2, §3, §4

CN1CCN(c2ccc(OC(F)(F)F)c(Nc3ncc4c(n3)-c3c(c(C(N)=O)nn3CCO)CC4)c2)CC1 [Onvansertib]
EC50 (COLO320DM; onvansertib + 1 nM INBRX-109): 283 nM | EC50 (COLO320DM; onvansertib only): 382 nM | Max Cytotox at 600 nM (COLO320DM; onvansertib + 1 nM INBRX-109): 79.6% | Max Cytotox at 600 nM (COLO320DM; onvansertib only): 58.3% | Max Cytotox at 600 nM (DLD-1; onvansertib + 1 nM INBRX-109): 90.4% | Max Cytotox at 600 nM (DLD-1; onvansertib only): 45.8% | EC50 (DLD-1; onvansertib + 1 nM INBRX-109): 184 nM | EC50 (DLD-1; onvansertib only): 280 nM | Max Cytotox at 600 nM (HCT 116; onvansertib + 1 nM INBRX-109): 96.6% | Max Cytotox at 600 nM (HCT 116; onvansertib only): 76.0% | EC50 (HCT 116; onvansertib + 1 nM INBRX-109): 66.8 nM | EC50 (HCT 116; onvansertib only): 112 nM | Max Cytotox at 600 nM (HCT-15; onvansertib + 1 nM INBRX-109): 94.9% | Max Cytotox at 600 nM (HCT-15; onvansertib only): 61.4% | EC50 (HCT-15; onvansertib + 1 nM INBRX-109): 175 nM | EC50 (HCT-15; onvansertib only): 268 nM | Max Cytotox at 600 nM (HCT-8; onvansertib + 1 nM INBRX-109): 81.3% | Max Cytotox at 600 nM (HCT-8; onvansertib only): 52.7% | EC50 (HCT-8; onvansertib + 1 nM INBRX-109): 200 nM | EC50 (HCT-8; onvansertib only): 205 nM | Max Cytotox at 600 nM (HT-29; onvansertib + 1 nM INBRX-109): 98.3% | Max Cytotox at 600 nM (HT-29; onvansertib only): 45.6% | EC50 (HT-29; onvansertib + 1 nM INBRX-109): 43 nM | EC50 (HT-29; onvansertib only): 61.6 nM | Max Cytotox at 600 nM (HT-55; onvansertib + 1 nM INBRX-109): 87.9% | Max Cytotox at 600 nM (HT-55; onvansertib only): 41.8% | EC50 (HT-55; onvansertib + 1 nM INBRX-109): 44.1 nM | EC50 (HT-55; onvansertib only): 51.4 nM | EC50 (Hutu 80; onvansertib + 1 nM INBRX-109): 133 nM | EC50 (Hutu 80; onvansertib only): 138 nM | Max Cytotox at 600 nM (Hutu 80; onvansertib + 1 nM INBRX-109): 86.5% | Max Cytotox at 600 nM (Hutu 80; onvansertib only): 85.4% | EC50 (LS 1034; onvansertib + 1 nM INBRX-109): 199 nM | EC50 (LS 1034; onvansertib only): 237 nM | Max Cytotox at 600 nM (LS 1034; onvansertib + 1 nM INBRX-109): 85.8% | Max Cytotox at 600 nM (LS 1034; onvansertib only): 38.8% | EC50 (LS 123; onvansertib + 1 nM INBRX-109): 172 nM | EC50 (LS 123; onvansertib only): 150 nM | Max Cytotox at 600 nM (LS 123; onvansertib + 1 nM INBRX-109): 24.1% | Max Cytotox at 600 nM (LS 123; onvansertib only): 9.6% | EC50 (LS 180; onvansertib + 1 nM INBRX-109): 197 nM | EC50 (LS 180; onvansertib only): 505 nM | Max Cytotox at 600 nM (LS 180; onvansertib + 1 nM INBRX-109): 86.2% | Max Cytotox at 600 nM (LS 180; onvansertib only): 42.9% | EC50 (LS 513; onvansertib + 1 nM INBRX-109): 101 nM | EC50 (LS 513; onvansertib only): 215 nM | Max Cytotox at 600 nM (LS 513; onvansertib + 1 nM INBRX-109): 93.7% | Max Cytotox at 600 nM (LS 513; onvansertib only): 39.6% | EC50 (LS174T; onvansertib + 1 nM INBRX-109): 109 nM | EC50 (LS174T; onvansertib only): 252 nM | Max Cytotox at 600 nM (LS174T; onvansertib + 1 nM INBRX-109): 94.1% | Max Cytotox at 600 nM (LS174T; onvansertib only): 59.5% | EC50 (LoVo; onvansertib + 1 nM INBRX-109): 41.8 nM | EC50 (LoVo; onvansertib only): 34.1 nM | Max Cytotox at 600 nM (LoVo; onvansertib + 1 nM INBRX-109): 90.8% | Max Cytotox at 600 nM (LoVo; onvansertib only): 29.6% | EC50 (NCI-H716; onvansertib + 1 nM INBRX-109): 83.6 nM | EC50 (NCI-H716; onvansertib only): 81.3 nM | Max Cytotox at 600 nM (NCI-H716; onvansertib + 1 nM INBRX-109): 51.2% | Max Cytotox at 600 nM (NCI-H716; onvansertib only): 34.8%
